Laboratory results published in BindingDB's records for doi:10.3109/14756366.2011.578393 (Gitam University, 2012).

Molecular target: Carbonic anhydrase 2 (Homo sapiens, UniProt P00918)
Assay: Enzyme Inhibition Assay
Details: pH 7.4; 25 °C
Description: Saturated CO2 solutions in water at 25°C were used as substrate. Stock solutions of inhibitors were prepared at a concentration of 10 mM (in dimethyl sulphoxidewater 1:1, v/v) and dilutions up to 1 mM done with the assay buffer mentioned above. […] Inhibitor and enzyme solutions were preincubated together for 10 min at room temperature prior to assay, in order to allow for the formation of the E-I complex.

IC50 [µM]	SMILES
2000	O=C(/C=C/C=C/c1ccc2c(c1)OCO2)N1CCCCC1 [1-[(2E,4E)-5-(1,3-benzodioxol-5-yl)penta-2,4-dienoyl]piperidine]
2000	Cn1c(=O)c2c(ncn2C)n(C)c1=O
